Data reported in US20250161216A1, “CATIONIC LIPID ANALOGUES, COMPOSITIONS AND USES THEREOF” (GUANGZHOU LIDE BIOMEDICINE TECHNOLOGY CO., LTD., priority 2022, published 2025).

Columns and labels:
[1] = Characterization of the lipid nanoparticles prepared in Example 6; format: physicochemical; conditions: cationic lipid analogue:cholesterol:DSPC:DMG-PEG 50:38.5:10:1.5
From the text: The drug-loaded nanoparticle included a cationic lipid analogue, cholesterol, distearoylphosphatidylcholine (DSPC), and 1,2-dimyristoyl-rac-glycerol-3-methoxypolyethylene glycol (DMG-PEG), • wherein a molar ratio of the cationic lipid analogue:cholesterol:DSPC:DMG-PEG was 50:38.5:10:1.5.
In the drug-loaded nanoparticle, a mass ratio of the cationic lipid analogue to the nucleic acid drug, such as mRNA or siRNA, etc., was 11:1.
A cationic lipid analogue, cholesterol, DSPC, and DMG-PEG were dissolved in an ethanol solution, and mixed in the above-mentioned molar ratio to obtain an organic phase. Then, an mRNA nucleic acid drug at a corresponding mass ratio was dissolved in a sodium acetate buffer solution (25 mM, pH=3.0) to obtain an aqueous phase, so that a volume ratio of the aqueous phase to the organic phase was 3:1. Then, the aqueous phase was quickly added to the organic phase and mixed evenly, and the mixture was allowed to stand for 10 minutes. After that, the mixture was put into a 1000 Da dialysis bag, and dialyzed in a 1×PBS solution at 4° C. for 2 hours to obtain the nanoparticle that can be directly used for injection.

C57BL/6 mice [2] = test: In vivo expression level of Luciferase-mRNA delivered by intravenous injection (bioluminescence imaging); conditions: mRNA-loaded nanoparticles, intravenous (tail vein), 5 μg Luciferase-mRNA, 6 hours; for Bioluminescence intensity / Fluorescence intensity of liver: compounds of Example 1
In short: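 Lipid nanoparticles carrying 5 μg Luciferase-mRNA given by tail-vein injection to 6-8-week-old C57BL/6 mice. At 6 h, 3 mg D-luciferin i.p. in PBS; bioluminescence imaged 10 min later as the expression read-out.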

C57BL/6 mice [3] = test: In vivo expression level of Luciferase-mRNA delivered by intramuscular injection (bioluminescence imaging); conditions: mRNA-loaded nanoparticles, intramuscular (leg muscle), 5 μg Luciferase-mRNA, 6 hours
Protocol: Luciferase-mRNA was used as an mRNA model; and the cationic lipid analogues of Examples 1-5 were used to prepare drug-loaded nanoparticles according to the method of Example 6.
100 μL of nanoparticles containing 5 μg Luciferase-mRNA or the drug-loaded nanoparticles prepared above were injected into the leg muscles of 6-8 week-old C57BL/6 mice, and 200 μL of 1×PBS solution containing 3 mg D-Luciferin potassium salt was intraperitoneally injected into the mice 6 hours later. After waiting for 10 minutes, an in vivo expression level of the mRNA was evaluated by bioluminescence imaging.

SMILES | Local fluorescence intensity (C57BL/6 mice [3]; compounds of Example 1) | Fluorescence intensity of spleen (C57BL/6 mice [2]; compounds of Example 2) | Local fluorescence intensity (C57BL/6 mice [3]; compounds of Example 2) | Fluorescence intensity of liver (C57BL/6 mice [2]) | also measured
CCCCCCCCCCSSCCC(=O)N(CCO)C(C(=O)NCCN(CCNC(=O)C(C(C)C)N(CCO)C(=O)CCSSCCCCCCCCCC)CCNC(=O)C(C(C)C)N(CCO)C(=O)CCSSCCCCCCCCCC)C(C)C (stereo not shown) [A1I5R22S15] |  |  |  |  | Diameter of the nanoparticles [1]: 144 ± 7 nm; PDI [1]: 0.22; Zeta potential [1]: −7.2 mV; encapsulation efficiency [1]: 65.4%; Fluorescence intensity of spleen (C57BL/6 mice [2]; compounds of Example 3): 3.40E+06; Local fluorescence intensity (C57BL/6 mice [3]; compounds of Example 3): 1.50E+06
CCCCCCCCCCCCCCCCCCNC(=O)C(C(C)C)N(CCN1CCCCC1)C(=O)CCCCCCCCCCCCCCCCC (stereo not shown) [A1I18R12C18] | 4.37E+04 |  |  |  | Bioluminescence intensity (C57BL/6 mice [2]): 9.34E+02
CCCCC/C=C\C/C=C\CCCCCCCC(=O)N(CCN(CCN(C(=O)CCCCCCC/C=C\C/C=C\CCCCC)C(C(=O)NCCOC)C(C)C)CCN(C(=O)CCCCCCC/C=C\C/C=C\CCCCC)C(C(=O)NCCOC)C(C)C)C(C(=O)NCCOC)C(C)C (stereo not shown) [A1I31R47C18-2] |  |  |  |  | Fluorescence intensity of spleen (C57BL/6 mice [2]; compounds of Example 5): 6.90E+04; Local fluorescence intensity (C57BL/6 mice [3]; compounds of Example 5): 2.24E+05
CCCCC/C=C\C/C=C\CCCCCCCC(=O)N(CCN(CCN(C(=O)CCCCCCC/C=C\C/C=C\CCCCC)C(C(=O)NCC(=O)OCC)C(C)C)CCN(C(=O)CCCCCCC/C=C\C/C=C\CCCCC)C(C(=O)NCC(=O)OCC)C(C)C)C(C(=O)NCC(=O)OCC)C(C)C (stereo not shown) [A1I32R47C18-2] |  |  |  |  | Diameter of the nanoparticles [1]: 150 ± 9 nm; PDI [1]: 0.21; Zeta potential [1]: −3.1 mV; encapsulation efficiency [1]: 60.5%; Fluorescence intensity of spleen (C57BL/6 mice [2]; compounds of Example 5): 8.50E+03; Local fluorescence intensity (C57BL/6 mice [3]; compounds of Example 5): 3.68E+04
CCCCCCCC/C=C\CCCCCCCC(=O)N(CCO)C(C(=O)NCCN(C)CCNC(=O)C(C(CC)CCCC)N(CCO)C(=O)CCCCCCC/C=C\CCCCCCCC)C(CC)CCCC (stereo not shown) [A4I4R22C18-1] |  | 6.82E+05 | 5.47E+05 |  | 
CCCCC/C=C\C/C=C\CCCCCCCC(=O)N(CCO)C(C(=O)NCCN(C)CCNC(=O)C(C(CC)CCCC)N(CCO)C(=O)CCCCCCC/C=C\C/C=C\CCCCC)C(CC)CCCC (stereo not shown) [A4I4R22C18-2] |  | 2.61E+05 | 4.66E+05 |  | 
CCCCCCCCCCCCCCCCCC(=O)N(CCO)C(C(=O)NCCN(C)CCNC(=O)C(C(CC)CCCC)N(CCO)C(=O)CCCCCCCCCCCCCCCCC)C(CC)CCCC (stereo not shown) [A4I4R22C18] |  | 5.51E+05 | 5.53E+05 |  | 
CCCCC/C=C\C/C=C\CCCCCCCC(=O)N(CCOC)C(C(=O)NCCN(C)CCNC(=O)C(C(CC)CCCC)N(CCOC)C(=O)CCCCCCC/C=C\C/C=C\CCCCC)C(CC)CCCC (stereo not shown) [A4I4R23C18-2] |  | 4.96E+05 | 1.93E+04 |  | 
CCCCCCCCCCCCCCCCCC(=O)N(CCOC)C(C(=O)NCCN(C)CCNC(=O)C(C(CC)CCCC)N(CCOC)C(=O)CCCCCCCCCCCCCCCCC)C(CC)CCCC (stereo not shown) [A4I4R23C18] |  | 2.16E+05 | 6.36E+04 |  | 
CCCCCCCC/C=C\CCCCCCCC(=O)N(CCN(C)C)C(C(=O)NCCCCCCCCCCCCCCCCCC)C(CC)CCCC (stereo not shown) [A4I18R1C18-1] | 1.54E+07 |  |  |  | Bioluminescence intensity (C57BL/6 mice [2]): 1.39E+07
CCCCC/C=C\C/C=C\CCCCCCCC(=O)N(CCN(C)C)C(C(=O)NCCCCCCCCCCCCCCCCCC)C(CC)CCCC (stereo not shown) [A4I18R1C18-2] | 2.11E+07 |  |  | 9.67E+06 | 
CCCCCCCC/C=C\CCCCCCCC(=O)N(CCCN(C)C)C(C(=O)NCCCCCCCCCCCCCCCCCC)C(CC)CCCC (stereo not shown) [A4I18R2C18-1] | 1.32E+07 |  |  |  | Bioluminescence intensity (C57BL/6 mice [2]): 1.33E+07
CCCCC/C=C\C/C=C\CCCCCCCC(=O)N(CCCN(C)C)C(C(=O)NCCCCCCCCCCCCCCCCCC)C(CC)CCCC (stereo not shown) [A4I18R2C18-2] | 2.97E+07 |  |  |  | Bioluminescence intensity (C57BL/6 mice [2]): 2.06E+07
CCCCCCCCCCCCCCCCCCNC(=O)C(C(CC)CCCC)N(CCCN(C)C)C(=O)CCCCCCCCCCCCCCCCC (stereo not shown) [A4I18R2C18] | 9.04E+05 |  |  | 5.05E+05 | 
CCCCCCCC/C=C\CCCCCCCC(=O)N(CCCN(CC)CC)C(C(=O)NCCCCCCCCCCCCCCCCCC)C(CC)CCCC (stereo not shown) [A4I18R3C18-1] | 1.77E+07 |  |  |  | Bioluminescence intensity (C57BL/6 mice [2]): 1.39E+07
CCCCC/C=C\C/C=C\CCCCCCCC(=O)N(CCCN1CCOCC1)C(C(=O)NCCCCCCCCCCCCCCCCCC)C(CC)CCCC (stereo not shown) [A4I18R5C18-2] | 4.99E+05 |  |  | 8.34E+03 | 
CCCCCCCCCCCCCCCCCCNC(=O)C(C(CC)CCCC)N(CCCN1CCOCC1)C(=O)CCCCCCCCCCCCCCCCC (stereo not shown) [A4I18R5C18] | 4.33E+05 |  |  | 2.68E+03 | 
CCCCC/C=C\C/C=C\CCCCCCCC(=O)N(CCN1CCCCC1)C(C(=O)NCCCCCCCCCCCCCCCCCC)C(CC)CCCC (stereo not shown) [A4I18R12C18-2] | 2.60E+05 |  |  | 9.22E+03 | 
CCCCCCCCCCCCCCCCCCNC(=O)C(C(CC)CCCC)N(CCN1CCCCC1)C(=O)CCCCCCCCCCCCCCCCC (stereo not shown) [A4I18R12C18] | 1.75E+05 |  |  | 2.31E+03 | 
CCCCCCCC/C=C\CCCCCCCC(=O)N(CCO)C(C(=O)NCCN(C)CCNC(=O)C(C1CCCCC1)N(CCO)C(=O)CCCCCCC/C=C\CCCCCCCC)C1CCCCC1 (stereo not shown) [A23I4R22C18-1] |  | 6.57E+05 | 1.41E+05 |  | 
CCCCC/C=C\C/C=C\CCCCCCCC(=O)N(CCO)C(C(=O)NCCN(C)CCNC(=O)C(C1CCCCC1)N(CCO)C(=O)CCCCCCC/C=C\C/C=C\CCCCC)C1CCCCC1 (stereo not shown) [A23I4R22C18-2] |  | 6.10E+05 | 9.09E+05 |  | 
CCCCCCCCCCCCCCCCCC(=O)N(CCO)C(C(=O)NCCN(C)CCNC(=O)C(C1CCCCC1)N(CCO)C(=O)CCCCCCCCCCCCCCCCC)C1CCCCC1 (stereo not shown) [A23I4R22C18] |  | 4.61E+05 | 3.41E+04 |  | 
CCCCCCCC/C=C\CCCCCCCC(=O)N(CCOC)C(C(=O)NCCN(C)CCNC(=O)C(C1CCCCC1)N(CCOC)C(=O)CCCCCCC/C=C\CCCCCCCC)C1CCCCC1 (stereo not shown) [A23I4R23C18-1] |  | 2.96E+05 | 5.87E+06 |  | 
CCCCCCCCCCCCCCCCCC(=O)N(CCOC)C(C(=O)NCCN(C)CCNC(=O)C(C1CCCCC1)N(CCOC)C(=O)CCCCCCCCCCCCCCCCC)C1CCCCC1 (stereo not shown) [A23I4R23C18] |  | 1.49E+05 | 5.32E+05 |  | 
CCCCC/C=C\C/C=C\CCCCCCCC(=O)N(CCCN(C)C)C(C(=O)NCCCCCCCCCCCCCCCCCC)C1CCCCC1 (stereo not shown) [A23I18R2C18-2] | 7.16E+05 |  |  | 1.52E+06 | 
CCCCCCCCCCCCCCCCCCNC(=O)C(C1CCCCC1)N(CCCN(C)C)C(=O)CCCCCCCCCCCCCCCCC (stereo not shown) [A23I18R2C18] | 4.83E+04 |  |  | 3.87E+05 | 
CCCCCCCCCCCCCCCCCCNC(=O)C(C1CCCCC1)N(CCCN1CCOCC1)C(=O)CCCCCCCCCCCCCCCCC (stereo not shown) [A23I18R5C18] | 9.13E+04 |  |  | 1.85E+03 | 
CCCCC/C=C\C/C=C\CCCCCCCC(=O)N(CCN1CCCCC1)C(C(=O)NCCCCCCCCCCCCCCCCCC)C1CCCCC1 (stereo not shown) [A23I18R12C18-2] | 2.01E+06 |  |  | 6.30E+03 | 
